Results published in patent US20060192819A1, “Recording apparatus” (Fuji Xerox Co., Ltd., priority 2005, published 2006).

Test: Solubility of ionic liquid in 100 g of ink or treating solution
Type: physicochemical
Conditions: about 23° C., left 1 day
Description: Solubility (the amount of the ionic liquid that can be solved in 100 g of the ink) is defined by mixing the ink and the ionic liquid in predetermined amounts and leaving the resultant mixture for 1 day while keeping it at a temperature of about 23° C. The amount of ionic liquid that has separated from the ink 1 day after mixing is determined as the amount of ionic liquid exceeding the solubility of the ionic liquid in the ink.

Row | SMILES | Solubility (g) of ionic liquid in 100 g of ink (ink A) | Solubility (g) ionic liquid in 100 g of treating solution (treating solution A) | Solubility (g) of ionic liquid in 100 g of ink (ink B)
1 | CC[N+](C)(CC)CCOC.O=S(=O)([N-]S(=O)(=O)C(F)(F)F)C(F)(F)F [Example 1-2, N-diethyl-3-methyl-N-(2-methoxyethyl)ammonium bis(trifluoromethanesulfonyl)imide] | 0.1 g or less | 0.1 g or less | –
2 | CC[N+](C)(CC)CCOC.F[B-](F)(F)F [Example 1-4, N-diethyl-3-methyl-N-(2-methoxyethyl)tetrafluoroborate] | – | – | less than 5 g
